Results on three molecules are retold here after patent US20260232006A1, “EMULSIONS FOR NICOTINE ENCAPSULATION” (NICOVENTURES TRADING LIMITED, priority 2023, published 2026).

SMILES strings stand for the structures.

For data set [1] the following is noted: cited from earlier work.
The conditions of data set [2]: in mixture of mono- and diglycerides of capric and caprylic acid (Capmul MCM); 48 h at 30° C.
Procedure: Samples were blanketed with nitrogen, sonicated for 30 min, then placed in a thermostatic orbital shaker and continuously shaken at 300 rpm for 48 h at 30° C.

Regarding `CC(/C=C/C=C(C)/C=C/C(=O)O)=C\C=C\C=C(C)\C=C\C=C(C)\C=C\C(=O)O` (stereo in doubt) [norbixin, (2E,4E,6E,8E,10E,12E,14E,16E,18E)-4,8,13,17-tetramethylicosa-2,4,6,8,10,12,14,16,18-nonaenedioic acid], the solubility in water result in data set [1] was “water-soluble”.
For `COC(=O)/C=C/C(C)=C\C=C\C(C)=C\C=C\C=C(C)\C=C\C=C(C)\C=C\C(=O)O` [bixin, (2E,4E,6E,8E,10E,12E,14E,16Z,18E)-20-methoxy-4,8,13,17-tetramethyl-20-oxoicosa-2,4,6,8,10,12,14,16,18-nonaenoic acid], in data set [1], the “solubility in fats and alcohols” value is listed as “soluble”; the solubility in water entry is recorded as “insoluble”. In data set [1] (isolated, isomerizes to trans-bixin), the chemical stability result is given as “chemically unstable when isolated”.
In the case of `CN1CCCC1c1cccnc1.O=C(O)c1ccccc1` (centres unmarked) [nicotine benzoate], the “highest nicotine benzoate solubility in oil without sedimentation” value in data set [2] is given as 30 % by weight.
